Data: patent US8546381B2, “Bridged heterocyclic compounds and methods of use” (Medivation Technologies, Inc., priority 2008, dated 2013)

How the values were obtained:
[1] = target: T1, rat adrenergic α1A receptor (Rattus norvegicus, UniProt P43140); experiment: Adrenergic α1A radioligand binding ([3H]Prozosin); settings: for inhibition at 1 µM: read-out: Adrenergic α1A, inhibition of ligand binding (1 μM)
T1 construct: obtained from Wistar Rat submaxillary glands; from tissue; host or cells: Wistar rat submaxillary glands
T1 sequence (P43140 1-466): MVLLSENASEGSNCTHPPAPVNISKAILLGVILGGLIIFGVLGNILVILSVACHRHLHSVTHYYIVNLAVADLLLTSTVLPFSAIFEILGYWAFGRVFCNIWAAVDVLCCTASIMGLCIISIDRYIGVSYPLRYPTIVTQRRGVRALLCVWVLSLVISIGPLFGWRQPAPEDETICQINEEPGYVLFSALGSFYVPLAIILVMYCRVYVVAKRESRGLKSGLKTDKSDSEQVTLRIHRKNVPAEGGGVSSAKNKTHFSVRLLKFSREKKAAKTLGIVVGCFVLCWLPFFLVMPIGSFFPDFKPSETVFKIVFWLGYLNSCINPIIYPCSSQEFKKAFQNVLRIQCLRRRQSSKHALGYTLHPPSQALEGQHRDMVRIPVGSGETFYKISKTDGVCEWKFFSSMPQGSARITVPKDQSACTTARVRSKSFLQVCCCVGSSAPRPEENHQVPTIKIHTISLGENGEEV
Method: (§1) To evaluate in radioligand binding assays the activity of compounds of the invention, rat adrenergic α1A receptor obtained from Wistar Rat submaxillary glands (Michel, A. D. et al., Br. J. Pharmacol. 98:883, 1989) in a modified Tris-HCl buffer (50 mM Tris-HCl buffer, pH 7.4, 0.5 mM EDTA) was used. Compounds of the invention were incubated with 0.25 nM [^3H]Prozosin for 60 minutes at 25° C. Non-specific binding was estimated in the presence of 10 μM phentolamine. Receptor proteins were filtered and washed, the filters were then counted to determine [^3H]Prozosin specifically bound. Compounds of the invention were screened at 1 μM or lower, using 1% DMSO as vehicle. Compounds of the invention were tested in this biochemical assay and percent inhibition of specific binding was determined.

[2] = target: T2, rat adrenergic α1B receptor (Rattus norvegicus, UniProt P15823); experiment: Adrenergic α1B radioligand binding ([3H]Prozosin); settings: for inhibition at 1 µM: read-out: Adrenergic α1B, inhibition of ligand binding (1 μM)
T2 construct: obtained from Wistar Rat liver; from tissue; host or cells: Wistar rat liver
T2 sequence (P15823 1-515): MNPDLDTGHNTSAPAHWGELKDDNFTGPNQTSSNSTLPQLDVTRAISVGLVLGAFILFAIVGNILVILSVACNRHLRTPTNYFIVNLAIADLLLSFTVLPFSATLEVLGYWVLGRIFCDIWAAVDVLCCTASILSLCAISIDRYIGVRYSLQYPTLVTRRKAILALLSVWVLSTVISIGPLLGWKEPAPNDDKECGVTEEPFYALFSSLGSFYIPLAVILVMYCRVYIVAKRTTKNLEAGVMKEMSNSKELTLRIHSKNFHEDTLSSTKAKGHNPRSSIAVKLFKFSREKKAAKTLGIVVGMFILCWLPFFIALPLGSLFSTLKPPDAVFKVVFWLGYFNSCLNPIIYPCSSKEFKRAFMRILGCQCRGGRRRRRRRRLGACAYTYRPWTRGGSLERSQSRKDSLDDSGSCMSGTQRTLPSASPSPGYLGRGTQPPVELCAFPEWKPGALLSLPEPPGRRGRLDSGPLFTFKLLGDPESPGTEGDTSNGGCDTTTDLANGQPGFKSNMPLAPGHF
Method: as §1, with “rat adrenergic α1B receptor obtained” for “rat adrenergic α1A receptor obtained”, “Wistar Rat liver (Garcia-S'ainz, J. A. et al., Biochem. Biophys. Res. Commun. 186:760, 1992; Michel A. D.” for “Wistar Rat submaxillary glands (Michel, A. D.”, “bound. Compounds were screened” for “bound. Compounds of the invention were screened”

[3] = target: T3, human recombinant adrenergic α2C receptor (Homo sapiens, UniProt P18825); experiment: Adrenergic α2C radioligand binding ([3H]MK-912); settings: for inhibition at 1 µM: read-out: Adrenergic α2C, inhibition of ligand binding (1 μM)
T3 construct: expressed in transfected cells; host or cells: insect Sf9 cells
T3 sequence (P18825 1-462): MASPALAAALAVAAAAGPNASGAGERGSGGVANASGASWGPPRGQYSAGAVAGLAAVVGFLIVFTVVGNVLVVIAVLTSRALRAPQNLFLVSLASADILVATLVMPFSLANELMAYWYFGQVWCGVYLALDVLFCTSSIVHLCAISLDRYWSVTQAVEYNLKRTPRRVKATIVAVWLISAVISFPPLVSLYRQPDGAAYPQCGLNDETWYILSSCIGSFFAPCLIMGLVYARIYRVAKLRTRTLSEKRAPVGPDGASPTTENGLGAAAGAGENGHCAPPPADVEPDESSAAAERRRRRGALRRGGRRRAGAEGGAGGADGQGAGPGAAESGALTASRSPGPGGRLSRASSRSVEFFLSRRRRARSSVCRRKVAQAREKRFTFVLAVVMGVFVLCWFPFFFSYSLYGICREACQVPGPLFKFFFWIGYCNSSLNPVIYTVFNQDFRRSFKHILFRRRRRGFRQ
Method: To evaluate in radioligand binding assays the activity of compounds of the invention, human recombinant adrenergic α2C receptor expressed in insect Sf9 cells (Uhlen S et al. J Pharmacol Exp Ther. 271:1558, 1994) in a modified Tris-HCl buffer (50 mM Tris-HCl, pH 7.4, 12.5 mM MgCl2, 2 mM EDTA) was used. Compounds of the invention were incubated with 1 nM [^3H]MK-912 for 60 minutes at 25° C. Non-specific binding was estimated in the presence of 10 μM WB-4101. Receptor proteins were filtered and washed, the filters were then counted to determine [^3H]MK-912 specifically bound. Compounds were screened at 1 μM or lower, using 1% DMSO as vehicle. Compounds of the invention were tested in this biochemical assay and percent inhibition of specific binding was determined.

`Cc1ccc2c(c1)c1c(n2CCc2ccccc2)CC2CCC1N2C` (stereo not drawn) [Compound 2] gave an inhibition at 0.03 µM ([1]; read-out: Adrenergic α1A, inhibition of ligand binding (0.03 μM)) of 66%, an inhibition at 0.3 µM ([1]; read-out: Adrenergic α1A, inhibition of ligand binding (0.3 μM)) of 97% and an inhibition at 1 µM [1] of 98%. It also gave an inhibition at 0.03 µM ([2]; read-out: Adrenergic α1B, inhibition of ligand binding (0.03 μM)) of 63%, an inhibition at 0.3 µM ([2]; read-out: Adrenergic α1B, inhibition of ligand binding (0.3 μM)) of 89% and an inhibition at 1 µM [2] of 99%. It also gave an inhibition at 0.03 µM ([3]; read-out: Adrenergic α2C, inhibition of ligand binding (0.03 μM)) of 14%, an inhibition at 0.3 µM ([3]; read-out: Adrenergic α2C, inhibition of ligand binding (0.3 μM)) of 69% and an inhibition at 1 µM [3] of 97%.
`CN1C2CCC1c1c(n(CCc3ccc(Cl)cc3)c3ccc(Cl)cc13)C2` (stereo not drawn) [Compound 58] gave an inhibition at 1 µM [1] of 89%, an inhibition at 1 µM [2] of 83% and an inhibition at 1 µM [3] of 89%.
With `CN1C2CCC1c1c(n(CCc3ccc(F)cc3)c3ccc(Cl)cc13)C2` (stereo not drawn) [Compound 57] the inhibition at 1 µM [1] was 90%, the inhibition at 1 µM [2] was 87% and the inhibition at 1 µM [3] was 83%.
With `Cc1ccc2c(c1)c1c(n2CCc2ccccc2)CC2CCCC1N2C` (stereo not drawn) [Compound 56] the inhibition at 1 µM [1] was 94%, the inhibition at 1 µM [2] was 80% and the inhibition at 1 µM [3] was 55%.
